# Experimental data taken from a melting point compilation (Tetko et al.; mined from patent text by program, amines drawn as free bases though some values may be those of a salt).
row,melting point,Compound
1,147 to 149 °C,COc1ccc2c(c1)c(OC(C)C)c(C(N)=O)n2C
2,268 to 275 °C,CC(=O)Nc1ccc(-c2c[nH]c(=O)cn2)cc1
3,76 to 77 °C,CC(=O)c1c(-c2ccccc2)n(C)c2ccccc12
4,124 to 128 °C,Cc1c(C)c2c(c(C)c1O)CC[C@@](C)(CO)O2
5,132 to 135 °C,CCOC(=O)c1cnn2c1c(NC1CCCCC1)nc1ccccc12
6,113 to 116 °C,OCc1csc(=S)n1-c1ccc(F)c(F)c1F
7,> 250 °C,Cc1csc(C(=O)C2C(=O)N(C(N)=O)c3cc(F)cnc32)c1 (stereo unspecified)
8,132 to 134 °C,O=C(O)Cc1cccc(Cc2nc3c(F)c(F)cc(F)c3s2)c1
9,52 to 54 °C,CCCCCCCCCCCCCCCCCC(=O)CC(=O)OC
10,286 to 289 °C,Cn1c(=O)[nH]c2cnc(-c3ccccc3)nc21
11,35 to 36 °C,NN=C(c1cccc(F)c1)c1cccc(F)c1
12,78 to 79 °C,OCc1cn(-c2cccc(Cl)c2)cn1
13,201 to 205 °C,CCCC(=O)Nc1cccc(C2(c3cc(C(=O)CC)n(CC)c3)N=C(N)N(C)C2=O)c1 (stereo unspecified)
14,146 to 147 °C,CC(C)Cn1c(=O)n(C)c(=O)c2c(CCCCC(=O)O)n(Cc3cccc4ccccc34)cc21
15,200 to 202 °C,O=C(O)[C@H](Cc1ccccc1)NC(=O)[C@@H]1CCCN1C(=O)c1ccccc1
16,38 to 40 °C,O=[N+]([O-])c1cc(OCc2ccccc2)ccc1CCCl
17,115 to 116 °C,COC(=O)Cn1c(C)ccc(NC(=O)OCc2ccccc2)c1=O
18,92 to 94 °C,COc1c(Nc2ncc(Cl)c(N[C@@H]3CCCC[C@H]3NS(C)(=O)=O)n2)ccc2c1CCCC(NCCO)C2 (stereo partly specified)
19,255 to 257 °C,CNc1cc(Oc2ccc3c(C(=O)Nc4ccc(F)c(C(F)(F)F)c4)cncc3c2)ncn1
20,233 to 234 °C,CC(=O)NC1=C(N)C(=O)c2ccccc2C1=O
21,94 to 95 °C,CC1=CC(=O)C(C(C)C)=C(CCNC(=O)C(F)(F)F)C1=O
22,188 to 190 °C,COc1ccc(-c2cc3ccccc3s2)cc1
23,97 °C,CCOC(=O)c1cc2c(F)cccc2nc1Cl
24,148 to 149 °C,CCCCCC(CC(=O)NO)C(=O)NC(C(=O)N1CCCC1CO)C(C)C (stereo unspecified)

row,melting point,Compound
1,210 to 212 °C,CC1(C)CC(=O)c2c(nc(C3CCCC3)c(C(=O)c3ccc(C(F)(F)F)cc3)c2-c2ccc(F)c(F)c2)C1
2,120 to 122 °C,CC1(C)Cc2nc(N)sc2C(C)(C)C1
3,252 to 255 °C,Oc1ccc2c(c1)COc1c-2cc2ccc(O)cc2c1-c1cc(Cl)cc(Cl)c1
4,140 to 141 °C,Cc1oc(-c2ccccc2)nc1CCOc1cccc(OC(C)(C)C(=O)O)c1
5,170 to 172 °C,CSCCC(S)C(=O)NC1(C(=O)NC(Cc2ccc(-c3ccsc3)nc2)C(=O)O)CCCC1 (stereo unspecified)
6,101 to 102 °C,CCOc1ccc2c(c1)cc1n2CCC1
7,159 to 160 °C,CCCCCS(=O)(=O)NC(=O)c1ccc2sc(C)c(Cc3ccc(Cl)c(Cl)c3)c2c1
8,102 to 103 °C,CC(C)CCC(C)Oc1c(-c2ccc(S(C)(=O)=O)cc2)cnn(-c2ccc(F)cc2)c1=O (stereo unspecified)
9,163 to 167 °C,O=S1(=O)Cc2ccc(F)cc2C(c2ccc(F)cc2)=NN1CCCc1ccccc1
10,130 to 132 °C,NS(=O)(=O)NC(=O)CCCCCC1CCSS1 (stereo unspecified)
11,93 °C,COC(=O)C1CCCN1S(=O)(=O)c1ccc(C)cc1 (racemic)
12,136 to 137 °C,COc1ccc(COCc2nc(C(C)C)c(Sc3cc(Cl)cc(Cl)c3)n2C(C)C)cc1
13,174 °C,NC(=O)C1=C(S(=O)Cc2ccccc2)CCC1 (stereo unspecified)
14,154 to 155 °C,COC(=O)CCCCCOC1OC(CO)C(O)C(O)C1NC(C)=O (stereo unspecified)
15,72 to 73 °C,CN(CCCCC(=O)O)c1ccc(Br)cc1C=O
16,118 °C,CCOC(=O)C1=NN(c2ccc([N+](=O)[O-])cc2)C2(N3CCCC3)CCCC12 (stereo unspecified)
17,106 °C,CCN(CC)CC(O)Cn1cc(-c2ccccc2)c2ccccc2c1=O (stereo unspecified)
18,275 °C,NC(C(=O)O)c1ccc(C=CC2CC2)[nH]1 (stereo unspecified)
19,163 to 164 °C,CC(C)(C)c1cc(CCC(=O)NCc2cccc(NC(=N)c3cccs3)c2)cc(C(C)(C)C)c1O
20,73 to 74 °C,CC(C)(C)OC(=O)[C@H]1CC[C@@H](NC(=O)OCc2ccccc2)CC1
21,61 to 65 °C,CC(C)CC1OC[C@@H]2CCCN2C1=O (stereo partly specified)
22,114 to 122 °C,O=C1CCC(=O)N1CCSc1ccc(O)cc1
23,133 to 135 °C,CCCn1c(NC(=O)c2ccccc2)nc2ccccc2c1=O
24,204 to 206 °C,CCOC1=NS(=O)(=O)N=C1c1ccccc1

row,melting point,Compound
1,231 to 233 °C,O=C1CCC(N2Cc3c(OCc4ccc(CNC5CCOCC5)cc4)cccc3C2=O)C(=O)N1 (stereo unspecified)
2,104 to 105 °C,O=[N+]([O-])c1ccccc1NCc1cc(F)cc(F)c1
3,130 to 132 °C,CS(=O)(=O)c1ccc(-c2cc(=O)n(CC3CC3)nc2-c2ccc(F)cc2)cc1
4,140 to 141 °C,O=C(NCc1cccs1)C12CC3CC(CC(O)(C3)C1)C2
5,118 to 120 °C,COc1cccc(Cc2ccc(-c3c[nH]nc3N)cc2)c1
6,271 to 272 °C,Oc1c2c(nc3c(-c4cc(-c5ccccc5)cs4)cnn13)CCCC2
7,82 to 83 °C,CC[C@H]1CN(c2ccc(-c3ccnc(Nc4cc(OC)c(OC)c(OC)c4)n3)cn2)CCN1
8,> 268 °C,Oc1ccc(-c2ncc3ncc(Nc4ncccn4)cc3n2)cc1
9,168 to 170 °C,O=C1CCc2c(Cl)sc(Cl)c21
10,121 °C,COc1cc2c(cc1N)CCCC2
11,195 °C,CC1CC2OC2C=CC=CC(=O)Cc2c(Cl)c(O)cc(O)c2C(=O)O1 (stereo unspecified)
12,84.3 °C,C=CCC(C#N)(C#N)Cc1ccc(OCC)cc1
13,182 °C,COc1ccccc1-c1ccc2ccc(N)nc2n1
14,67.2 °C,C#CCOc1cc(Oc2c(F)cccc2F)ncn1
15,205 to 206 °C,Cc1c(C(=O)O)nc2c(cc(C)c3nc(C(=O)O)c(C)c(O)c32)c1O
16,114 °C,COCCOc1ccc(CCCOC(=O)NS(=O)(=O)NCCOC(C)C)c(Oc2ncc(C(F)(F)F)cc2Cl)c1
17,98 to 99.5 °C,CSC(C(=O)c1cc(-c2ccccc2)on1)N(C)C (stereo unspecified)
18,127 to 130 °C,CCN(CC)CCOC(=O)c1cnc2ccn(-c3ccccc3)n2c1=O
19,72 to 74 °C,Clc1ccc(C(Cl)c2cc3cc(Cl)cc(Cl)c3o2)cc1 (stereo unspecified)
20,68 to 70 °C,CC(=O)OC1CC(COC(=O)c2ccccc2)OC1n1cc(F)c(=O)[nH]c1=O (stereo unspecified)
21,179 °C,Cc1cccc(NC(=O)NCCC(=O)N(c2ccccc2)c2ccccc2)c1
22,50 to 55 °C,O=C(Nc1ccc(C(F)(F)F)cc1)C1CC(c2ccc(F)cc2)N(c2ccc(Cl)cc2)N1 (stereo unspecified)
23,113 to 115 °C,COc1ccc(Br)c(OC)c1C#N
24,83 to 85 °C,CCC(C(=O)N(C)C)n1cc(C)c(-c2cccs2)n1 (stereo unspecified)

row,Compound,melting point
1,N#Cc1coc(CBr)c1,40 to 45 °C
2,CC(C)N1C(=O)N(c2ccc(C#N)c(C(F)(F)F)c2)C(=O)C1(CF)CF,153 to 154 °C
3,CCN1CCc2c(NC(C)=O)ccc(Br)c2C1,168 to 169 °C
4,CC(C)(C)OC(=O)c1ncn2c1[C@@H]1CCCN1C(=O)c1ccccc1-2,237 to 238 °C
